# Experiments:
# Experiment in all cases: relative viability (nuclei count vs DMSO), 5 days (fraction); higher = more cells survive
# Bortezomib + Luminespib = compound: CC(C)C[C@H](NC(=O)[C@H](Cc1ccccc1)NC(=O)c1cnccn1)B(O)O [Bortezomib] + CCNC(=O)c1noc(-c2cc(C(C)C)c(O)cc2O)c1-c1ccc(CN2CCOCC2)cc1 [Luminespib] (partner 0.01 µM)
# How it was run: (§1)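 Relative viability equals treated-well nuclei counts divided by vehicle-well nuclei counts. Counts came from 4× images of lung cancer cell lines grown in 1536-well plates for 5 days after pin-tool dosing on the day after seeding. Dosing used one drug alone or a fixed anchor-drug dose plus five library-drug doses (not always all listed) in √10 steps, and values are medians of duplicate plates.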
# [1] = compound: CC1=CC(=NN1)NC2=CC(=NC(=N2)/C=C/C3=CC=CC=C3)N4CCN(CC4)C + CCNC(=O)c1noc(-c2cc(C(C)C)c(O)cc2O)c1-c1ccc(CN2CCOCC2)cc1 [Luminespib] (partner 0.01 µM)
# How it was run: as §1
# [2] = compound: CC1=CC(=NN1)NC2=CC(=NC(=N2)/C=C/C3=CC=CC=C3)N4CCN(CC4)C + Cc1cc(Nc2cc(N3CCN(C)CC3)nc(Sc3ccc(NC(=O)C4CC4)cc3)n2)n[nH]1 [Tozasertib] (partner 0.1 µM)
# How it was run: as §1
# [3] = compound: CC1=CC(=NN1)NC2=CC(=NC(=N2)/C=C/C3=CC=CC=C3)N4CCN(CC4)C + NC(=O)Nc1cc(-c2cccc(F)c2)sc1C(=O)N[C@H]1CCCNC1 [AZD7762] (partner 0.2 µM)
# How it was run: as §1
Cell Line,relative viability (Bortezomib + Luminespib; first compound 0.0002 µM),relative viability (Bortezomib + Luminespib; first compound 0.000632 µM),relative viability (Bortezomib + Luminespib; first compound 0.002 µM),relative viability (Bortezomib + Luminespib; first compound 0.006325 µM),relative viability (Bortezomib + Luminespib; first compound 0.02 µM),relative viability ([1]; first compound 0.08 µM),relative viability ([1]; first compound 0.253 µM),relative viability ([1]; first compound 0.8 µM),relative viability ([1]; first compound 2.53 µM),relative viability ([1]; first compound 8 µM),relative viability ([2]; first compound 0.08 µM),relative viability ([2]; first compound 0.253 µM),relative viability ([2]; first compound 0.8 µM),relative viability ([2]; first compound 2.53 µM),relative viability ([2]; first compound 8 µM),relative viability ([3]; first compound 0.08 µM),relative viability ([3]; first compound 0.253 µM),relative viability ([3]; first compound 0.8 µM),relative viability ([3]; first compound 2.53 µM),relative viability ([3]; first compound 8 µM)
PC-3 [JPC-3],0.663,0.669,0.505,0.226,0.127,0.684,0.834,0.736,0.686,0.549,0.886,0.899,0.839,0.74,0.461,0.709,0.805,0.764,0.554,0.303
HCC-44,0.983,0.984,0.585,0.187,0.197,1.04,1.53,0.993,0.842,0.164,0.83,1.05,0.67,0.268,0.146,1.02,1.03,1.01,1.01,0.844
NCI-H2405,0.685,0.763,0.615,0.227,0.189,0.845,0.827,0.655,0.526,0.186,0.751,0.72,0.674,0.421,0.185,0.742,0.766,0.768,0.357,0.118
LXF-289,0.68,0.598,0.639,0.138,0.074,0.658,0.755,0.672,0.33,0.104,0.192,0.142,0.191,0.113,0.0447,1.06,1.11,1.04,0.685,0.102
LOU-NH91,0.352,0.312,0.279,0.252,0.231,0.391,0.402,0.322,0.299,0.228,0.713,0.719,0.707,0.482,0.308,0.782,0.834,0.733,0.518,0.336
H3255,0.765,0.856,1.02,0.386,0.271,1.03,0.991,0.892,0.771,0.559,0.79,0.71,0.374,0.513,0.297,0.866,0.935,0.955,0.782,0.374
NCI-H1395,0.864,0.761,0.445,0.334,0.263,0.782,0.687,0.699,0.401,0.293,0.76,0.751,0.566,0.496,0.315,0.399,0.389,0.346,0.315,0.332
LC-2-ad,0.972,1.06,0.64,0.226,0.214,1.11,1.23,0.693,0.611,0.204,0.45,0.409,0.358,0.224,0.204,0.778,0.928,0.676,0.16,0.12
NCI-H838,0.428,0.302,0.264,0.124,0.103,0.31,0.26,0.242,0.25,0.118,0.296,0.287,0.271,0.211,0.119,0.963,1.09,0.99,0.782,0.623
SW 900,0.167,0.198,0.184,0.163,0.16,0.164,0.136,0.159,0.168,0.11,0.594,0.667,0.559,0.326,0.174,0.534,0.526,0.649,0.314,0.104
LCLC-97TM1,0.674,0.756,0.687,0.123,0.139,0.806,0.796,0.67,0.341,0.0891,0.235,0.132,0.23,0.145,0.126,0.177,0.251,0.236,0.139,0.0567
HCC-15,0.322,0.343,0.405,0.0965,0.0909,0.497,0.349,0.444,0.237,0.108,0.291,0.355,0.18,0.0787,0.0703,1.1,1.46,1.25,0.875,0.34
CAL-12T,0.121,0.447,0.412,0.599,0.105,0.429,0.512,0.356,0.123,0.074,0.25,0.303,0.251,0.172,0.143,0.626,0.655,0.647,0.319,0.152
NCI-H727,0.374,0.321,0.358,0.382,0.279,0.467,–,0.264,0.252,0.208,0.568,0.533,0.578,0.407,0.267,0.571,0.427,0.601,0.55,0.381
ABC-1,0.439,0.523,0.262,0.252,0.227,0.497,0.51,0.961,0.701,0.19,0.191,0.164,0.191,0.207,0.182,–,1.16,0.795,0.907,0.175
NCI-H2023,0.638,0.694,0.789,0.118,0.0549,0.741,1.12,0.524,0.0645,0.0624,0.266,0.305,0.235,0.0983,0.0659,–,–,–,–,–
NCI-H358,0.285,–,0.349,0.307,0.0995,0.35,0.303,0.261,0.206,0.0878,0.103,0.103,0.0892,0.089,0.0711,0.574,0.528,0.424,0.195,0.154
SW 1573,0.162,0.222,0.214,0.0768,0.0532,0.421,0.259,0.179,0.105,0.0707,0.213,0.162,0.162,0.133,0.0849,–,–,–,–,–
NCI-H1993,0.799,0.807,0.991,0.428,0.4,0.882,0.944,0.843,0.779,0.391,0.553,0.524,0.577,0.485,0.52,0.712,0.622,0.775,0.33,0.3

Cell Line,relative viability (Bortezomib + Luminespib; first compound 0.0002 µM),relative viability (Bortezomib + Luminespib; first compound 0.000632 µM),relative viability (Bortezomib + Luminespib; first compound 0.002 µM),relative viability (Bortezomib + Luminespib; first compound 0.006325 µM),relative viability (Bortezomib + Luminespib; first compound 0.02 µM),relative viability ([1]; first compound 0.08 µM),relative viability ([1]; first compound 0.253 µM),relative viability ([1]; first compound 0.8 µM),relative viability ([1]; first compound 2.53 µM),relative viability ([1]; first compound 8 µM),relative viability ([2]; first compound 0.08 µM),relative viability ([2]; first compound 0.253 µM),relative viability ([2]; first compound 0.8 µM),relative viability ([2]; first compound 2.53 µM),relative viability ([2]; first compound 8 µM),relative viability ([3]; first compound 0.08 µM),relative viability ([3]; first compound 0.253 µM),relative viability ([3]; first compound 0.8 µM),relative viability ([3]; first compound 2.53 µM),relative viability ([3]; first compound 8 µM)
NCI-H661,0.928,0.858,0.921,0.4,0.151,0.907,–,0.919,0.55,0.321,0.321,0.344,0.339,0.382,0.394,–,–,–,–,–
UMC-11,0.871,0.978,0.972,0.597,0.167,0.903,0.996,0.715,0.182,0.125,0.191,0.212,0.206,0.183,0.162,–,–,–,–,–
NCI-H520,0.223,0.234,0.237,0.211,0.217,0.25,0.269,0.186,0.195,0.242,0.432,0.464,0.381,0.307,0.176,–,–,–,–,–
ChaGo-K-1,0.577,0.554,0.683,0.356,0.169,0.644,0.613,0.629,0.384,0.159,0.222,0.227,0.217,0.195,0.172,0.823,0.935,0.824,0.439,0.241
NCI-H2085,0.482,0.36,0.4,0.178,0.235,0.358,0.417,0.438,0.318,0.184,0.823,0.749,0.629,0.424,0.433,0.95,1.09,0.882,0.272,0.186
COR-L 105,0.784,0.914,0.614,0.434,0.211,0.553,0.784,0.736,0.654,0.197,0.372,0.304,0.348,0.248,0.246,–,–,–,–,–
NCI-H1703,–,–,–,–,–,–,–,–,–,–,–,–,–,–,–,0.151,0.0851,0.114,0.147,0.0896
NCI-H1650,0.186,0.185,0.177,0.203,0.217,0.19,0.184,0.206,0.203,0.183,0.384,0.384,0.373,0.187,0.169,–,–,–,–,–
NCI-H2009,0.954,0.988,1.06,0.803,0.0826,0.989,1.04,0.987,1.05,0.2,0.656,0.73,0.663,0.368,0.217,–,–,–,–,–
COR-L23,0.639,0.669,0.61,0.0526,0.058,0.723,0.813,0.593,0.398,0.0972,0.163,0.182,0.148,0.1,0.0908,–,–,–,–,–
NCI-H1563,0.47,0.527,0.562,0.449,0.331,0.498,0.554,0.537,0.553,0.434,–,–,–,–,–,–,–,–,–,–
NCI-H1623,0.498,0.496,0.551,0.364,0.277,0.579,0.493,0.48,0.494,0.305,0.4,0.441,0.414,0.397,0.342,–,–,–,–,–
SK-MES-1,0.801,0.763,0.72,0.166,0.156,0.61,0.888,0.391,0.144,0.131,0.881,0.912,0.656,0.177,0.13,–,–,–,–,–
NCI-H1792,0.321,0.452,0.282,0.451,0.229,0.407,0.375,0.412,0.319,0.122,–,–,–,–,–,0.659,0.732,0.665,0.132,0.0222
SK-LU-1,0.218,0.205,0.201,0.155,0.118,0.204,0.192,0.136,0.148,0.0748,0.347,0.313,0.304,0.156,0.0914,–,–,–,–,–
NCI-H2228,0.129,0.117,0.137,0.0914,0.093,0.178,0.143,0.139,0.128,0.054,0.193,0.214,0.158,0.086,0.0648,–,–,–,–,–
HCC-366,–,–,–,–,–,–,–,–,–,–,0.0833,0.0907,0.0487,0.032,0.0245,0.247,0.302,0.245,0.0242,0.0179
HCC-78,–,–,–,–,–,–,–,–,–,–,0.365,0.427,0.352,0.304,0.253,0.628,0.746,0.868,0.401,0.249
NCI-H1648,–,–,–,–,–,–,–,–,–,–,0.42,0.543,0.643,0.46,0.215,0.578,0.691,0.663,0.626,0.513

# Source: the supplement of paper PMC10307832
